Measured values reported in BindingDB's records for doi:10.1124/jpet.102.047092 (Case Western Reserve University, 2003).

How the values were obtained:
[1] = target: T1, Alpha-2C adrenergic receptor (Homo sapiens, UniProt P18825)
T1 sequence (P18825 whole entry): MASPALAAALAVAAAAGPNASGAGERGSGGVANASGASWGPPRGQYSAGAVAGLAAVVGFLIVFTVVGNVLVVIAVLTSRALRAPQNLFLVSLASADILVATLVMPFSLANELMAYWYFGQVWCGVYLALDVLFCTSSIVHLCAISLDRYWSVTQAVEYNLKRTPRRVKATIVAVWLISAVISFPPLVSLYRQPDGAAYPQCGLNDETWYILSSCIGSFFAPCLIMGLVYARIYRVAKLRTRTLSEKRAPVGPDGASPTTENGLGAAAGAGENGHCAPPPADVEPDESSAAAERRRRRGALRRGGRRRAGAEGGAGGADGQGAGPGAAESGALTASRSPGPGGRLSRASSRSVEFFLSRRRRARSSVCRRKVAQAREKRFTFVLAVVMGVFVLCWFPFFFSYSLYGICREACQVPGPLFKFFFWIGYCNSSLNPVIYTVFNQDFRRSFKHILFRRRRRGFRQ

[2] = target: Vasopressin V2 receptor (Homo sapiens, UniProt P30518)
Vasopressin V2 receptor, sequence (P30518 whole entry): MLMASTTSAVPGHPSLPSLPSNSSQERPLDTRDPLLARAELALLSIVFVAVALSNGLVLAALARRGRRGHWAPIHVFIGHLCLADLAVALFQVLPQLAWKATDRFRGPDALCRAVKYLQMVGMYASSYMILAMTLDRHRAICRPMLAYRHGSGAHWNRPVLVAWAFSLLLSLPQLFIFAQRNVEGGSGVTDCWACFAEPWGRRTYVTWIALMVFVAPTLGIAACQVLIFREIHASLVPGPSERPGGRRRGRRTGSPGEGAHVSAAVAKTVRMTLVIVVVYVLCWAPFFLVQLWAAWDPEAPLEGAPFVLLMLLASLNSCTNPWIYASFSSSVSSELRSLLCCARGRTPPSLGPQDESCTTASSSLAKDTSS

[3] = target: 5-hydroxytryptamine receptor 1B (Homo sapiens, UniProt P28222)
5-hydroxytryptamine receptor 1B, sequence (P28222 whole entry): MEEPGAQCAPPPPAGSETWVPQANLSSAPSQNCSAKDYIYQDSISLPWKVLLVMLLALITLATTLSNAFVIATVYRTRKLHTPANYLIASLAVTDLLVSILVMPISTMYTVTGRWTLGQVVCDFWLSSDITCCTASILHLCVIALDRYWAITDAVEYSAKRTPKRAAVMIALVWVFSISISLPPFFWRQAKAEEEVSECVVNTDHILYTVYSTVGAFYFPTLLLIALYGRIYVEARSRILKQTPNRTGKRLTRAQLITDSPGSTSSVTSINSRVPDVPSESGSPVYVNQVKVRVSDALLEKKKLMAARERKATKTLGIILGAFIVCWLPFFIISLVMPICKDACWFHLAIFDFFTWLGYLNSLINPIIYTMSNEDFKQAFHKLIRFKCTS

[4] = target: T2, Muscarinic acetylcholine receptor M5 (Homo sapiens, UniProt P08912)
T2 sequence (P08912 whole entry): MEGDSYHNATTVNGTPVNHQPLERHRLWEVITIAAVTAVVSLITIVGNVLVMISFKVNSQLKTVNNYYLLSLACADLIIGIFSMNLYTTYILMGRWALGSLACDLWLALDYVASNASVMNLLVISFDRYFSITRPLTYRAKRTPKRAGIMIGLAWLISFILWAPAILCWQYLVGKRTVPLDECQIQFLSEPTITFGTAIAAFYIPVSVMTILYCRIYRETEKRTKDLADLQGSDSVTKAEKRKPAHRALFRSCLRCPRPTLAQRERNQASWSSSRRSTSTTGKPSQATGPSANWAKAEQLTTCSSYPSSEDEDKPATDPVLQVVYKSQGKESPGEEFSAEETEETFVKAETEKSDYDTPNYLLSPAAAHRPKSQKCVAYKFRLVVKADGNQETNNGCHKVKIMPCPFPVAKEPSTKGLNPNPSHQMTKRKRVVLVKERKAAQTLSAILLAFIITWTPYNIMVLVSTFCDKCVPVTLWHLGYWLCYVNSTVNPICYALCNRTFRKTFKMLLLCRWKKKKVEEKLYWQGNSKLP

[5] = target: T3, Oxytocin receptor (Homo sapiens, UniProt P30559)
T3 sequence (P30559 whole entry): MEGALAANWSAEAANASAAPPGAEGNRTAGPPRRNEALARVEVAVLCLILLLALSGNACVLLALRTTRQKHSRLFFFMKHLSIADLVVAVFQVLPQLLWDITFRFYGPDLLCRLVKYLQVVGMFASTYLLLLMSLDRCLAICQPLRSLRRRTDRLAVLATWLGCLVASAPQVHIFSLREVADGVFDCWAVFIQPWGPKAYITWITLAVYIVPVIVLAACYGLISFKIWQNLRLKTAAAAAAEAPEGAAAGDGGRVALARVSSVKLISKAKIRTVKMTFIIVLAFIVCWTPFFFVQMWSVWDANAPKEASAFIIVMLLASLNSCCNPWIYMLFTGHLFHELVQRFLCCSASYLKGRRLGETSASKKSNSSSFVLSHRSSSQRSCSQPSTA

[6] = target: T4, D(4) dopamine receptor (Rattus norvegicus, UniProt P30729)
T4 sequence (P30729 whole entry): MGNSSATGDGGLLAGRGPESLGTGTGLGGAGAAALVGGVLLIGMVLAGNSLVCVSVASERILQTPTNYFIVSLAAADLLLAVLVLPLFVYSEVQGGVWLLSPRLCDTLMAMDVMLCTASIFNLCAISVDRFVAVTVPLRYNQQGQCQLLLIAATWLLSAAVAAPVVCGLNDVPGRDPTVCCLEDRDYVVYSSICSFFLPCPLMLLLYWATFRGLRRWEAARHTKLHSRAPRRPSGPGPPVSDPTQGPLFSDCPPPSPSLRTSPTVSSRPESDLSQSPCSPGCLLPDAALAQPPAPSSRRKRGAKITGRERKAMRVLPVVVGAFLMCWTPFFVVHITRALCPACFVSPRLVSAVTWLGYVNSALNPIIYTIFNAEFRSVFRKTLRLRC

[7] = target: T5, Muscarinic acetylcholine receptor M1 (Homo sapiens, UniProt P11229)
T5 sequence (P11229 whole entry): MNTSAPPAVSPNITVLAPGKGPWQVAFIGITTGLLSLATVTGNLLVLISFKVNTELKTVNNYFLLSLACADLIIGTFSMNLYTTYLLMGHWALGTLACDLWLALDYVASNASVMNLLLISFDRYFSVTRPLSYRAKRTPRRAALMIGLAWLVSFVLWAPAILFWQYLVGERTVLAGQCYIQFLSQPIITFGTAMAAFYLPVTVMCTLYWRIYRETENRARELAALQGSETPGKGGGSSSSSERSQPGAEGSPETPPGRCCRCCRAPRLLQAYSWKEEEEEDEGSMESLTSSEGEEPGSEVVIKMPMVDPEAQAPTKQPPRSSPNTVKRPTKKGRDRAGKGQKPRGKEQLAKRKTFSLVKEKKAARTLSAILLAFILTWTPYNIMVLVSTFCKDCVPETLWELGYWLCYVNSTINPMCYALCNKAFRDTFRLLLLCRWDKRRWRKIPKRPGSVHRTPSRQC

[8] = target: Neuronal acetylcholine receptor subunit alpha-3 (Homo sapiens, UniProt P32297)
Neuronal acetylcholine receptor subunit alpha-3, sequence (P32297 whole entry): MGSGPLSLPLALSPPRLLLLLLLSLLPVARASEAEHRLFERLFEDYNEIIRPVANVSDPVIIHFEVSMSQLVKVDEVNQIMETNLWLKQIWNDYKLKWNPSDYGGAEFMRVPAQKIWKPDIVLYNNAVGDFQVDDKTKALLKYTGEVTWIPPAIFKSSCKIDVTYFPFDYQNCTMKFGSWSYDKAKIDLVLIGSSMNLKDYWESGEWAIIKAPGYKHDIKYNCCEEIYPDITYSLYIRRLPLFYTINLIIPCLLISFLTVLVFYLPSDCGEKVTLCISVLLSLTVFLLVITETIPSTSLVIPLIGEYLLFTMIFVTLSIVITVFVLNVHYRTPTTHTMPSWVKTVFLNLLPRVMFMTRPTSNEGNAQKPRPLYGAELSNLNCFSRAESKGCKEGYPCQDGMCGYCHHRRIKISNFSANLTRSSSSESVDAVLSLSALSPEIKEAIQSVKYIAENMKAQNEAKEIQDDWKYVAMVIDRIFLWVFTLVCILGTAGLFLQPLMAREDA

Ki [1] [µM]	Ki [2] [µM]	Ki [3] [µM]	Ki [4] [µM]	Ki [5] [µM]	Ki [6] [µM]	Ki [7] [µM]	Ki [8] [µM]	Structure (SMILES)
> 10	> 10	> 10	> 10	> 10	> 10	> 10	> 10	N[C@@H](CCS)C(=O)O (racemic) [CAS_778]
> 10	> 10	> 10	> 10	> 10	> 10	> 10	> 10	NC(CS(=O)O)C(=O)O (centres undefined) [CAS_109]
> 10	> 10	> 10	> 10	> 10	> 10	> 10	> 10	CSCC[C@@H](N)C(=O)O [CAS_6137]
> 10	> 10	> 10	> 10	> 10	> 10	> 10	> 10	N[C@H](CCS(=O)(=O)O)C(=O)O [D-homocysteic acid]
> 10	> 10	> 10	> 10	> 10	> 10	> 10	> 10	N[C@H](CCS(=O)O)C(=O)O [D-homocysteine sulfinic acid]

Continued, compound first:

Structure (SMILES)	Ki [1] [µM]	Ki [2] [µM]	Ki [3] [µM]	Ki [4] [µM]	Ki [5] [µM]	Ki [6] [µM]	Ki [7] [µM]	Ki [8] [µM]
N[C@@H](CCS(=O)(=O)O)C(=O)O (racemic)	> 10	> 10	> 10	> 10	> 10	> 10	> 10	
NC(CSSCC(N)C(=O)O)C(=O)O (centres undefined) [CAS_595]	> 10	> 10	> 10	> 10	> 10	> 10	> 10	> 10
N[C@@H](CS)C(=O)O [CAS_5862]	> 10	> 10	> 10	> 10	> 10	> 10	> 10	> 10
N[C@@H]1CCSC1=O [D-homocysteine thiolactone]	> 10			> 10		> 10	> 10	> 10
N[C@H](CS(=O)(=O)O)C(=O)O [L-cysteic acid]	> 10	> 10	> 10	> 10	> 10	> 10	> 10	> 10
N[C@@H](CCS(=O)O)C(=O)O [L-homocysteine sulfinic acid]	> 10	> 10	> 10	> 10	> 10	> 10	> 10	> 10
N[C@H]1CCSC1=O [NSC_134505]	> 10			> 10		> 10	> 10	> 10
